Like-named read-outs stand apart in the source and are kept apart here.
Key:
[1] = target: BRD4(1) (Homo sapiens (Human), UniProt O60885); assay: AlphaScreen acetyl-histone binding assay, BRD4(1)
Description: (§1) The IC50 of the compounds were determined by ALPHASCREENING assays for BRD4 and BRDT proteins. NMC797 cell line is a BRD4 dependent NUT midline carcinoma line.
(§2) Acetyl-Histone Binding Assay. Assays were performed as described previously with minor modifications from the manufacturer's protocol (PerkinElmer, USA). All reagents were diluted in 50 mM HEPES, 100 mM NaCl, 0.1% BSA, pH 7.4 supplemented with 0.05% CHAPS and allowed to equilibrate to room temperature prior to addition to plates. A 24-point 1:2 serial dilution of the ligands was prepared over the range of 150-0 μM and 4 μl transferred to low-volume 384-well plates (ProxiPlate™-384 Plus, PerkinElmer, USA), followed by 4 μl of HIS-tagged protein (BRD4/1, 250 nM, BRD4/2 and CREBBP, 2000 nM). […] Plates were sealed and incubated for a further 30 minutes, before the addition of 4 μl of streptavidin-coated donor beads (25 μg/ml) and 4 μl nickel chelate acceptor beads (25 μg/ml) under low light conditions. Plates were foil-sealed to protect from light, incubated at room temperature for 60 minutes and read on a PHERAstar FS plate reader (BMG Labtech, Germany) using an AlphaScreen 680 excitation/570 emission filter set. IC50 values were calculated in Prism 5 (GraphPad Software, USA) after normalization against corresponding DMSO controls and are given as the final concentration of compound in the 20 μl reaction volume.

[2] = tested on: NMC797 cell line (BRD4 dependent NUT midline carcinoma line); assay: Cell proliferation assay (ATP content), NMC797; assay type: cell-based; conditions: NMC797 cells, 48 h incubation
Description: as §1
Cell Proliferation Assay. Cells were seeded into white, 384-well microtiter plates (Nunc) at 500 cells per well in a total volume of 50 μL media. The 797, TT, and TE10 cells were grown in DMEM containing 1% penicillin/streptomycin and 10% FBS. The Per403 cells were grown in DMEM containing 1% penicillin/streptomycin and 20% FBS. Compounds were delivered to microtiter assay plates by robotic pin transfer (PerkinElmer JANUS equipped with a V&P Scientific 100 nL pin tool). Following a 48 h incubation at 37° C., cells were lysed and wells were assessed for total ATP content using a commercial proliferation assay (Cell TITERGLO; Promega). Replicate measurements were analyzed with respect to dose and estimates of IC50 were calculated by logistic regression ([…] PRISM).

[3] = target: BRDT(1) (Homo sapiens (Human), UniProt Q58F21); assay: AlphaScreen acetyl-histone binding assay, BRDT(1)
Description: as §1, §2

[4] = Pharmacokinetics in male CD1 mice, IV administration; assay type: in vivo, mouse; conditions: IV 5 mg/kg, whole blood; for AUC(0-inf) / AUC(0-t) / MRT inf / clearance / half-life / Vd: mouse; for half-life: read-out: Terminal t1/2 (converted); for Vd: read-out: VSS
Description: (§3) Pharmacokinetic parameters were determined by administration of a candidate bromodomain inhibitor to male CD1 mice. Intravenous doses were delivered at 5 mg/kg, and oral doses at 10 mg/kg (N=3). […] The compound concentration in mouse blood was monitored over 24 hour time period to check the compound concentration in blood at 5 min, […], 1 h, 2 h, 6 h, 12, 24 h via a series bleeding.

[5] = Pharmacokinetics in male CD1 mice, oral administration; assay type: in vivo, mouse; conditions: for half-life: read-out: Terminal t1/2 (converted); for F: oral 10 mg/kg vs IV 5 mg/kg
Description: as §3

[6] = mouse, oral 10 mg/kg, whole blood
[7] = mouse, oral 10 mg/kg, whole blood, read-out: Cmax
[8] = mouse, oral 10 mg/kg, whole blood, read-out: Tmax

| Structure (SMILES) | IC50 [1] [nM] | IC50 ([2]; NMC-797) [nM] | IC50 [3] [nM] | further results |
| --- | --- | --- | --- | --- |
| COC(=O)C[C@@H]1N=C(c2ccc(Cl)cc2)c2c(sc(CNS(=O)(=O)c3ccccc3)c2C)-n2c(C)nnc21 [Compound 300] | 16 | 61 | 60 |  |
| Cc1sc2c(c1C)C(c1ccc(C#N)cc1)=N[C@@H](CC(=O)NC[C@@H](C)O)c1nnc(C)n1-2 [Compound 108] | 52 | 258 | 133 |  |
| Cc1sc2c(c1C)C(c1ccc(C#N)cc1)=N[C@@H](CC(=O)Nc1ccc(O)cc1)c1nnc(C)n1-2 [Compound 101] | 79 | 133 | 120 |  |
| Cc1c(CC#N)sc2c1C(c1ccc(Cl)cc1)=N[C@@H](CC(=O)NC[C@@H](C)O)c1nnc(C)n1-2 [Compound 208] | 415 | 6100 | 1200 |  |
| Cc1c(CC#N)sc2c1C(c1ccc(Cl)cc1)=N[C@@H](CC(=O)NCC(F)F)c1nnc(C)n1-2 [Compound 209] | 386 | 912 |  |  |
| Cc1sc2c(c1C)C(c1ccc(C#N)cc1)=N[C@@H](CC(=O)NCC(F)(F)F)c1nnc(C)n1-2 [Compound 111] | 117 | 125 |  |  |
| Cc1sc2c(c1C)C(c1ccc(C#N)cc1)=N[C@@H](CC(=O)NCCO)c1nnc(C)n1-2 [Compound 106] | 33 | 328 | 105 |  |
| Cc1sc2c(c1C)C(c1ccc(C#N)cc1)=N[C@@H](CC(=O)NCC(F)F)c1nnc(C)n1-2 [Compound 109] | 37 | 70 | 142 | AUC(0-inf) [4]: 3510 ng·h/mL; AUC(0-t) [4]: 3500 ng·h/mL; MRT inf [4]: 49.7 min; clearance [4]: 23.7 mL/min/kg; half-life [4]: 66.6 min; Vd [4]: 1.18 L/kg; AUC(0-inf) [5, 6]: 3780 ng·h/mL; AUC(0-t) [5, 6]: 3630 ng·h/mL; Cmax [5, 7]: 1210 ng/mL; half-life [5, 6]: 101 min; Tmax [5, 8]: 40 min; F [5]: 53.8% |
| COC(=O)C[C@@H]1N=C(c2ccc(Cl)cc2)c2c(sc(CC#N)c2C)-n2c(C)nnc21 [Compound 200] | 48 | 52 | 132 | AUC(0-inf) [4]: 4050 ng·h/mL; AUC(0-t) [4]: 4000 ng·h/mL; MRT inf [4]: 76.8 min; clearance [4]: 20.8 mL/min/kg; half-life [4]: 82.8 min; Vd [4]: 1.57 L/kg; AUC(0-inf) [5, 6]: 6040 ng·h/mL; AUC(0-t) [5, 6]: 5520 ng·h/mL; Cmax [5, 7]: 1500 ng/mL; half-life [5, 6]: 118 min; Tmax [5, 8]: 30 min; F [5]: 72.4% |
| Cc1sc2c(c1C)C(c1ccc(C#N)cc1)=N[C@@H](CC(N)=O)c1nnc(C)n1-2 [Compound 105] | 174 | 366 | 565 |  |
| Cc1c(CC#N)sc2c1C(c1ccc(Cl)cc1)=N[C@@H](CC(=O)Nc1ccc(O)cc1)c1nnc(C)n1-2 [Compound 201] | 175 | 1900 |  |  |
| CCNC(=O)C[C@@H]1N=C(c2ccc(Cl)cc2)c2c(sc(CC#N)c2C)-n2c(C)nnc21 [Compound 202] | 310 | 1130 |  |  |
| Cc1sc2c(c1C)C(c1ccc(C#N)cc1)=N[C@@H](CC(=O)NC[C@H](C)O)c1nnc(C)n1-2 [Compound 107] | 61 | 107 | 187 | AUC(0-inf) [4]: 2920 ng·h/mL; AUC(0-t) [4]: 2920 ng·h/mL; MRT inf [4]: 20.2 min; clearance [4]: 29.3 mL/min/kg; half-life [4]: 24.7 min; Vd [4]: 0.583 L/kg; AUC(0-inf) [5, 6]: 532 ng·h/mL; AUC(0-t) [5, 6]: 512 ng·h/mL; Cmax [5, 7]: 319 ng/mL; half-life [5, 6]: 97.2 min; Tmax [5, 8]: 30 min; F [5]: 9.10% |
| Cc1c(CC#N)sc2c1C(c1ccc(Cl)cc1)=N[C@@H](CC(=O)N1CCOCC1)c1nnc(C)n1-2 [Compound 210] | 466 | 118 | 1420 |  |
| Cc1sc2c(c1C)C(c1ccc(C#N)cc1)=N[C@@H](CC(=O)NCCCN1CCN(C)CC1)c1nnc(C)n1-2 [Compound 103] | 50 | 333 | 120 |  |
| Cc1sc2c(c1C)C(c1ccc(C#N)cc1)=N[C@@H](CC(=O)NCCN1CCOCC1)c1nnc(C)n1-2 [Compound 104] | 53 | 183 | 216 |  |
| Cc1c(CC#N)sc2c1C(c1ccc(Cl)cc1)=N[C@@H](CC(=O)NCCCN1CCN(C)CC1)c1nnc(C)n1-2 [Compound 203] | 134 | 6790 |  |  |
| Cc1sc2c(c1C)C(c1ccc(Cl)cc1)=N[C@@H](CC(=O)OC(C)(C)C)c1nnc(C)n1-2 [JQ1, reference compound] |  |  |  | IC50 [2]: 21 nM; AUCINF [4]: 2130 ng·h/mL; AUClast [4]: 2130 ng·h/mL; CL [4]: 39.2 mL/min/kg; MRTINF [4]: 51.7 min; AUCINF ([5]; oral 10 mg/kg, whole blood): 2090 ng·h/mL; AUClast ([5]; oral 10 mg/kg, whole blood): 2040 ng·h/mL; Cmax ([5]; oral 10 mg/kg, whole blood): 1180 ng/mL; Tmax ([5]; oral 10 mg/kg, whole blood): 15 min |
| Cc1c(CC#N)sc2c1C(c1ccc(Cl)cc1)=N[C@@H](CC(=O)NC[C@H](C)O)c1nnc(C)n1-2 [Compound 207] | 623 | 4250 |  |  |
| Cc1sc2c(c1C)C(c1ccc(C#N)cc1)=N[C@@H](CC(=O)OC(C)(C)C)c1nnc(C)n1-2 [Compound 100] |  | 185 |  |  |
| Cc1c(CC#N)sc2c1C(c1ccc(Cl)cc1)=N[C@@H](CC(=O)NCCN1CCOCC1)c1nnc(C)n1-2 [Compound 204] | 300 | 3460 |  |  |
| Cc1c(CC#N)sc2c1C(c1ccc(Cl)cc1)=N[C@@H](CC(N)=O)c1nnc(C)n1-2 [Compound 205] | 206 | 903 | 612 |  |
| Cc1sc2c(c1C)C(c1ccc(C#N)cc1)=N[C@@H](CC(=O)N1CCOCC1)c1nnc(C)n1-2 [Compound 110] | 89 | 116 | 197 |  |
| CCNC(=O)C[C@@H]1N=C(c2ccc(C#N)cc2)c2c(sc(C)c2C)-n2c(C)nnc21 [Compound 102] | 120 | 275 | 458 |  |
| Cc1c(CC#N)sc2c1C(c1ccc(Cl)cc1)=N[C@@H](CC(=O)NCCO)c1nnc(C)n1-2 [Compound 206] | 197 | 9630 | 642 |  |
